Reference: patent EP4341264B1, “PYRROLOPIRIMIDINE DERIVATIVES AND THEIR USE IN THE TREATMENT OF LEISHMANIASIS” (Drugs for Neglected Diseases Initiative, priority 2021, dated 2022)
Read-outs that look alike come from different tables or passages of the source.

What was measured:
[1] = test system: L. donovani (MHOM/ET/67/L82); assay: Intracellular amastigote susceptibility assay (primary peritoneal mouse macrophages); format: cell-based; details: Leishmania donovani, Macrophage; L. donovani (MHOM/ET/67/L82) amastigotes in mouse macrophages, 96-h incubation
Description: (§1) To obtain primary peritoneal macrophages, Swiss mice were stimulated by intraperitoneal injection of 1 mL 2% starch in PBS 48 h prior to cell collection. Animals were euthanized with a CO2 overdose and upon removal of the skin, 10 mL of RPMI-1640 (Life Technologies) was injected into the peritoneal cavity to collect the macrophages that were then seeded into 96-well plates at a final concentration of 30,000 cells/well in 100 µL of RPMI-1640 macrophage medium, supplemented with 5% iFCS, 2% penicillin/streptomycin and 1% L-glutamine (Life technologies). After 24 h, the cells were infected with spleen derived L. infantum (MHOM/MA(BE)/67/ITMAP263) or L. donovani (MHOM/ET/67/L82) amastigotes obtained from heavily infected donor hamsters. The amastigotes were purified using two centrifugation steps and diluted to obtain an infection ratio of 5:1 in RPMI-1640 cell culture medium. After incubation for 2 h, compound dilutions were added. Drug activity was evaluated after a 96-h incubation period without washing of the cells and without renewal of the drugged culture medium. Cells were stained with Giemsa for microscopic evaluation of cellular amastigote burdens. Percentage reduction compared to the burdens in the infected non-treated control wells was used as a measure for drug activity.

[2] = test system: L. infantum (MHOM/MA/67/ITMAP263); assay: as above; format: cell-based; details: Leishmania infantum, Macrophage; L. infantum (MHOM/MA/67/ITMAP263) amastigotes in mouse macrophages, 96-h incubation
Description: as §1

[3] = test system: T. cruzi infected NIH-3T3 murine fibroblasts; details: Peña et al. Sci. Rep. 2015, 5; cited from earlier work
[4] = test system: L. donovani parasites in infected human macrophages; details: Peña et al. Sci. Rep. 2015, 5; cited from earlier work
[5] = test system: L. infantum (MHOM/FR/96/LEM3323-cl4); assay: Leishmania clinical isolate panel screen (drug-susceptibility assay in infected macrophages); format: cell-based; details: Macrophage, read-out: IC50 Mean ± SEM
Description: (§2) Female Swiss mice (BW ~20 g) were purchased from a commercial source (Janvier France) and kept in quarantine for 1 week. The animals were housed in group and drinking water was available ad libitum. To harvest peritoneal macrophages, the mice were first stimulated by intraperitoneal injection of 1 mL of starch solution (2% in PBS). After 24 h, macrophages were collected in RPMI-1640 supplemented with 5% iFCS, 2% penicillin-streptomycin and 1% L-glutamine by peritoneal lavage and immediately distributed in a 96-well plate at a concentration of 30,000 cells/well. The cells were incubated for 24 h at 37°C and 5 % CO2 to allow cell attachment.
(§3) Strains of L. donovani, L. infantum, L. major, L. tropica, L. guyanensis and L. panamensis were selected based on their intrinsic susceptibility to the commonly used reference drugs and their geographic distribution. All strains were cultivated in HOMEM promastigote medium and sub-cultured twice weekly. Passage numbers were kept as low as possible to avoid loss of virulence. For infection of the macrophages, metacyclic promastigote cultures were examined light microscopically for the abundant presence of metacyclic promastigotes. Upon counting, promastigotes were centrifuged and diluted in RPMI-1640 to the desired concentration. The infection ratio varied based on the ability of the strain to adequately infect the host cells and ranged from 5 to 20 promastigotes per macrophage. Macrophages were infected by adding 100 µL promastigote suspension per well onto the macrophages. When ex vivo amastigotes were available (only for two lab strains), macrophages were infected at a ratio of 10/1.
(§4) Stock solutions of the DNDi lead compounds were prepared in 100% DMSO at 20 mM and robotically further diluted in water. Miltefosine (MIL) was included as reference and formulated in water at a concentration of 20 mM. The medium was discarded from the plates to remove any residual non-internalized promastigotes and replaced by fresh RPMI-1640 medium supplemented with iFBS, P/S and L-glutamine (as described above). Next, a 2-fold dilution series of each lead compound was added to the plate with 64 µM as the highest in test-concentration for the DNDi leads and 40 µM for MIL. The 96-well plates were further incubated at 34-37°C and 5% CO2. For staining, the culture medium was discarded, and the plates were left to dry for 2-4 hours. The cells were then fixated with methanol for 10 minutes and stained with a 1/5 Giemsa dilution in water for 15 minutes. The percentage infection-inhibition compared to a positive control (untreated infected macrophages) was microscopically determined and used to calculate the IC50 and IC90 values.

[6] = test system: L. tropica (MHOM/AF/2015/HTD7); assay: as above; format: cell-based; details: Macrophage, read-out: IC50 Mean ± SEM
Description: as §2, §3, §4

[7] = test system: L. major (MHOM/IL/81/Friedlin); assay: as above; format: cell-based; details: Macrophage, read-out: IC50 Mean ± SEM
Description: as §2, §3, §4

[8] = test system: L. guyanensis (MHOM/PE/02/PER 054/0); assay: as above; format: cell-based; details: Macrophage, read-out: IC50 Mean ± SEM
Description: as §2, §3, §4

[9] = test system: L. infantum (MHOM/ES/2016/LLM-2346); assay: as above; format: cell-based; details: Macrophage, read-out: IC50 Mean ± SEM
Description: as §2, §3, §4

[10] = test system: L. infantum (MHOM/BR/2007/WC (L3015)); assay: as above; format: cell-based; details: Macrophage, read-out: IC50 Mean ± SEM
Description: as §2, §3, §4

[11] = test system: L. donovani (MHOM/ NP/2003/BPK282/0-cl4); assay: as above; format: cell-based; details: Macrophage, read-out: IC50 Mean ± SEM
Description: as §2, §3, §4

[12] = test system: L. panamensis (MHOM/PA/71/LS94); assay: as above; format: cell-based; details: Macrophage, read-out: IC50 Mean ± SEM
Description: as §2, §3, §4

[13] = test system: L. infantum (LEM3323-cl4 PMM); assay: as above; format: cell-based; details: Macrophage, read-out: IC50 Mean ± SEM
Description: as §2, §3, §4

[14] = test system: L. donovani (MHOM/NP/03/BPK275/0-cl18); assay: as above; format: cell-based; details: Macrophage, read-out: IC50 Mean ± SEM
Description: as §2, §3, §4

[15] = test system: L. major (MHOM/SA/85/JISH118); assay: as above; format: cell-based; details: Macrophage, read-out: IC50 Mean ± SEM
Description: as §2, §3, §4

[16] = test system: L. infantum (LEM3323-cl4 MIL); assay: as above; format: cell-based; details: Macrophage, read-out: IC50 Mean ± SEM
Description: as §2, §3, §4

L. infantum = assay: VL hamster model in vivo efficacy (reduction of parasite load vs. control); details: 5 days
Description: The in vivo efficacy of the compounds C1, C3, C4, and miltefosine was evaluated in a VL hamster model infected with L. infantum. The in vivo studies were performed in accordance with the methods described by Van den Kerkhof et al. [IJP: Drugs and Drug Resistance, 2018, 8, Issue 1, 81-86]. Following treatment, the reduction of parasite load vs. control was determined in different body compartments (liver, spleen, and bone marrow) with results presented in Table 4. Table 4. Hamster in vivo efficacy

[17] = Visceral leishmaniasis, L. infantum (MHOM/FR/96/LEM3323-cl4), Miltefosine: mean only
[18] = Cutaneous leishmaniasis, L. tropica (MHOM/AF/2015/HTD7), Miltefosine: mean only
[19] = Cutaneous leishmaniasis, L. major (MHOM/IL/81/Friedlin), Miltefosine: mean only
[20] = Cutaneous leishmaniasis, L. guyanensis (MHOM/PE/02/PER 054/0), Miltefosine: mean only
[21] = Visceral leishmaniasis, L. infantum (MHOM/ES/2016/LLM-2346), Miltefosine: mean only
[22] = Visceral leishmaniasis, L. infantum (MHOM/BR/2007/WC (L3015)), Miltefosine: mean only
[23] = Visceral leishmaniasis, L. donovani (MHOM/ NP/2003/BPK282/0-cl4), Miltefosine: mean only
[24] = Cutaneous leishmaniasis, L. panamensis (MHOM/PA/71/LS94), Miltefosine: mean only
[25] = Visceral leishmaniasis, L. donovani (MHOM/NP/03/BPK275/0-cl18), Miltefosine: mean only
[26] = Cutaneous leishmaniasis, L. major (MHOM/SA/85/JISH118), Miltefosine: mean only

Row | Compound | IC50 [1] | IC90 [1] | IC50 [2] | IC90 [2] | IC50 [5, 17] | IC50 [6, 18] | IC50 [7, 19] | IC50 [8, 20] | IC50 [9, 21] | IC50 [10, 22] | IC50 [11, 23] | IC50 [12, 24] | IC50 [13] | IC50 [14, 25] | IC50 [15, 26] | IC50 [16] | % Parasite reduction Bone marrow (L. infantum; 25 mg/kg qd) | % Parasite reduction Liver (L. infantum; 25 mg/kg qd) | % Parasite reduction Spleen (L. infantum; 25 mg/kg qd) | other results
1 | Cc1[nH]c2nc(N)nc(C)c2c1-c1ccc(F)c2c1OCO2 [Compound C2, 5-(7-fluoro-1,3-benzodioxol-4-yl)-4,6-dimethyl-7H-pyrrolo[2,3-d]pyrimidin-2-amine] | 0.14 µM | 0.65 µM | 0.15 µM | 0.33 µM | – | – | – | – | – | – | – | – | – | – | – | – | – | – | – | –
2 | COc1ccccc1-c1c(C)[nH]c2nc(N)nc(C)c12 [TCMDC-143610] | – | – | – | – | – | – | – | – | – | – | – | – | – | – | – | – | – | – | – | pIC50 [3]: 6.6; pIC50 [4]: 4.6
3 | COc1nc(OCC(F)(F)F)cnc1-c1c(C)[nH]c2nc(N)nc(C)c12 [Compound C3, 5-[3-methoxy-5-(2,2,2-trifluoroethoxy)pyrazin-2-yl]-4,6-dimethyl-7H-pyrrolo[2,3-d]pyrimidin-2-amine] | 1.57 µM | 6.48 µM | 1.58 µM | 3.48 µM | 0.33 ± 0.08 µM | 2.38 ± 0.42 µM | 0.83 ± 0.34 µM | 0.12 ± 0.01 µM | 0.69 ± 0.36 µM | 0.82 ± 0.33 µM | 0.32 ± 0.16 µM | 0.26 ± 0.13 µM | 0.54 ± 0.05 µM | 0.23 ± 0.1 µM | 6.64 ± 0.61 µM | 0.4 ± 0.14 µM | 86.7% | 98.4% | 99.0% | % Parasite reduction Bone marrow (L. infantum; 12.5 mg/kg qd): 89.9%; % Parasite reduction Liver (L. infantum; 12.5 mg/kg qd): 96.1%; % Parasite reduction Spleen (L. infantum; 12.5 mg/kg qd): 98.4%
4 | Cc1[nH]c2nc(N)nc(C)c2c1-c1ccc(C#N)c2c1OCO2 [Compound C4, 7-(2-amino-4,6-dimethyl-7H-pyrrolo[2,3-d]pyrimidin-5-yl)-1,3-benzodioxole-4-carbonitrile] | 0.16 µM | 0.41 µM | 0.15 µM | 0.37 µM | – | – | – | – | – | – | – | – | 0.06 ± 0.02 µM | – | – | 0.07 ± 0.01 µM | 99.4% | 99.6% | 99.9% | IC50 [5]: 0.05 ± 0.01 µM; IC50 [6]: 0.3 ± 0.09 µM; IC50 [7]: 0.08 ± 0.02 µM; IC50 [8]: 0.01 µM; IC50 [9]: 0.17 ± 0.07 µM; IC50 [10]: 0.05 ± 0.03 µM; IC50 [11]: 0.03 ± 0.03 µM; IC50 [12]: 0.03 ± 0.01 µM; IC50 [14]: 0.04 ± 0.01 µM; IC50 [15]: 0.56 ± 0.26 µM; % Parasite reduction Bone marrow (L. infantum; 6.25 mg/kg bid): 93.6%; % Parasite reduction Liver (L. infantum; 6.25 mg/kg bid): 96.9%; % Parasite reduction Spleen (L. infantum; 6.25 mg/kg bid): 97.6%; % Parasite reduction Bone marrow (L. infantum; 12.5 mg/kg bid): 99.6%; % Parasite reduction Liver (L. infantum; 12.5 mg/kg bid): 99.7%; % Parasite reduction Spleen (L. infantum; 12.5 mg/kg bid): 99.9%; % Parasite reduction Bone marrow (L. infantum; 50 mg/kg qd): 99.9%; % Parasite reduction Liver (L. infantum; 50 mg/kg qd): 99.7%; % Parasite reduction Spleen (L. infantum; 50 mg/kg qd): 99.9%
5 | COc1cc(C#N)ccc1-c1c(C)[nH]c2nc(N)nc(C)c12 [Compound C1, 4-(2-amino-4,6-dimethyl-7H-pyrrolo[2,3-d]pyrimidin-5-yl)-3-methoxybenzonitrile] | 1.39 µM | 2.32 µM | 0.87 µM | 2.9 µM | 0.2 ± 0.08 µM | 1.49 ± 0.24 µM | 0.5 ± 0.17 µM | 0.06 ± 0.03 µM | 0.69 ± 0.19 µM | 0.44 ± 0.24 µM | 0.1 ± 0.17 µM | 0.17 ± 0.11 µM | 0.38 ± 0.07 µM | 0.15 ± 0.02 µM | 3 ± 1.05 µM | 0.35 ± 0.08 µM | – | – | – | % Parasite reduction Bone marrow (L. infantum; 25 mg/kg bid): 98.9%; % Parasite reduction Liver (L. infantum; 25 mg/kg bid): 95.9%; % Parasite reduction Spleen (L. infantum; 25 mg/kg bid): 95.2%; % Parasite reduction Bone marrow (L. infantum; 50 mg/kg bid): 97.4%; % Parasite reduction Liver (L. infantum; 50 mg/kg bid): 99.2%; % Parasite reduction Spleen (L. infantum; 50 mg/kg bid): 95.3%
